Experimental data from patent US6800727B2, “Peptides with increased + charge and hydrophobicity by substituting one or more amino acids of CA-MA peptide and pharmaceutical compositions containing thereof” (Chosun University, priority 2001, dated 2004).
Residues, ends and D or L forms follow the SMILES beside them.

Assays:
[1] = tested on: Bacillus subtilis (KCTC 1918); test: MIC measurement, anti-bacterial activity; assay type: cell-based; details: summary of the strains of Table 1
Experimental: In order to measure the anti-bacterial activity of the peptide synthesized in Example 1, minimum inhibitory concentration (MIC) of the peptide was measured.
The present inventors used Bacillus subtilis (KCTC 1918) and Staphylococus epidermidis (KCTC 1917) as Gram-positive bacteria, and Pseudomonas aeruginosa (KCTC 1637) and Salmonella typhimurium (KCTC 1926) as Gram-negative bacteria for this experiment. All the bacteria used in this experiment were given by Korea Research Institute of Bioscience and Biotechnology (KRIBB). Each bacterial strain was cultured in LB medium(1% bacto-trypton, 0.5% bacto-yeast extract, 1% sodium chloride) to the mid-log phase, and diluted with 1% bacto-peptone medium at the concentration of 1×10^4 cells/100 μl. The diluted bacteria were loaded into micro-titrate plate. Antibiotic peptide synthesized in Example 1 and CA-MA peptide (as a comparative group) were half-fold diluted consecutively from 25 μM/well, and added into the plate for culture at 37° C. for 6 hours. Finally, the MIC of each strain was determined by observing OD620 with a micro-titrate plate reader.

[2] = tested on: Candida albicans (TIMM 1768); test: Anti-fungal activity, MIC by MTT assay; assay type: cell-based; details: summary of the fungi of Table 2
Experimental: In order to measure the anti-fungal activity of the synthetic peptide of the present invention, the present inventors performed MTT assay with Candida albicans (TIMM 1768) and Tricosphoron beigelil (KCTC 7707). Particularly, PDB medium (20% potato infusion frum, 2% bacto dextrose) containing various fungi was loaded into the wells (100 μl/well) of 96-well plate. Antibiotic peptides of the present invention and CA-MA peptide (as a comparative group) were half-fold diluted consecutively, and added into the plate for further culturing. 10 μl of MTT solution ([…], 5 mg/ml) was added into each well followed by further culturing for 5-6 hours. Formazan produced by mitochondria enzymes of living cells was dissolved in 100 μl of 0.04 N HCl-isopropanol. Finally, OD570 was measured by using ELISA reader to determine the degree of MIC.

[3] = tested on: Human red blood corpuscles; test: Cytotoxicity: hemolysis capacity; assay type: cell-based; details: up to 12.5 μM
Experimental: Human red blood corpuscles were diluted with PBS (pH 7.0) to the concentration of 8%, and loaded into each wells of 96-well plate. Synthetic peptide of the present invention was half-fold diluted consecutively from 12.5 μM/well, followed by reacting with the red blood corpuscles for 1 hour at 37° C. After centrifugation, OD414 was measured to determine the amount of hemoglobin in the supernatant. At this time, CA-MA peptide was used as a comparative group and melittin was used as a positive control. In order to investigate the level of hemolysis, 1% triton X-100 was added, and then OD was measured. Hemolysis capacity of triton X-100 was regarded as 100%, with which hemolysis capacity of the synthetic peptide was compared and calculated according to the below <Mathematical Formula 1>.
% hemolysis=(OD A−OD B/OD C−OD B)×100

Bacillus subtilis [4] = test: Visualization of anti-bacterial activity, colonies on LB plate; assay type: cell-based; details: 4×10^5 B. subtilis cells, 1 μM peptide, 2 hours at 37° C.; FIG. 1
Experimental: (§1) In order to visualize the antibiotic activity of the synthetic peptide of the present invention on the plate, Pseudomonas aeruginosa and Bacillus subtilis were inoculated in LB medium (1% bacto trypton, 0.5% yeast extract, 1% sodium chloride), and cultured to mid-log phase. Particularly, 4×10^5 P. aeruginosa cells were loaded into the medium, and 4 μM of synthetic peptide was added thereto. 4×10^5 B. subtilis cells were also loaded into the medium, and 1 μM of synthetic peptide was added thereto. After culturing for 2 hours at 37° C., the culture fluid was smeared on LB plate to visualize the cells. At this time, CA-MA peptide was used as a comparative group.

Pseudomonas aeruginosa [5] = test: Visualization of anti-bacterial activity, colonies on plate; assay type: cell-based; details: 4×10^5 P. aeruginosa cells, 4 μM peptide, 2 hours at 37° C.; FIG. 2
Experimental: as §1

Bacillus subtilis [6] = test: Anti-bacterial activity observation with SEM; assay type: cell-based; details: 0.78 μM, 30 minutes at 37° C.; FIG. 3
Experimental: (§2) Bacillus subtilis (Gram-positive) and Pseudomonas aeruginosa (Gram-negative) cells were cultured in LB medium (1% bacto trypton, 0.5% bacto yeast extract, 1% sodium chloride) to mid-log phase, and the cells were diluted with 10 mM of Na-phosphate buffer containing 100 mM of NaCl) at the concentration of 10^8 cells/ml. Synthetic peptide of the present invention and CA-MA peptide (as a comparative group) were added into the diluted cell culture medium (final conc. 0.78 μM in B. subtilis culture, 1.56 μM in P. aeruginosa culture), followed by further culturing for 30 minutes at 37° C. 0.2 M Na-phosphate buffer containing 5% glutaraldehyde was added into the medium, and the cells were fixed for 2 hours at 4° C. The cells were filtered with isopore filters (0.2 μm pore size, Millipore, Bedford, Mass., USA), and washed with 0.1 M Na-cacodylate buffer (pH 7.4). The filters were treated with 1% osmium tertoxide and dehydrated.

Pseudomonas aeruginosa [7] = test: Anti-bacterial activity observation with SEM; assay type: cell-based; details: 1.56 μM, 30 minutes at 37° C.; FIG. 4
Experimental: as §2

Bacillus subtilis [8] = test: Membrane dynamic condition, DPH fluorescence anisotropy; assay type: cell-based; details: 6.25 μM˜0.097 μM, 2 hours at 37° C.; FIG. 5A
Experimental: (§3) The present inventors performed the below experiment in order to investigate the dynamic condition of lipid membrane of bacteria cells treated with synthetic peptide of the present invention. Particularly, B. subtilis (Gram-positive) and P. aeruginosa (Gram-negative) were cultured to mid-log phase in LB medium (1% bacto trypton, 0.5% bacto yeast extract, 1% sodium chloride). And the antibiotic peptide of the present invention and CA-MA peptide (as a comparative group) were treated (6.25 μM˜0.097 μM, half-fold diluted) thereto. Each strains were further cultured for 2 hours at 37° C. After fixing with 0.25% formaldehyde for 1 hour at room temperature, cultured cells were washed with PBS (pH 7.4), and then frozen in liquid nitrogen. For the fluorescent labeling, PBS (pH 7.4) was added until OD450 reached to 0.25, and DPH (1,6-diphenyl-1,3,5-hexatriene) dissolved in tetrahydrofuran was added (final conc. […]), followed by further culturing for 45 minutes at 37° C. Steady-state fluorescence anisotropy was determined by measuring the strength of fluorescence with spectrofluorometer (HITACHI F-3010, Tokyo, Japan) at 330 nm and 450 nm.

Pseudomonas aeruginosa [9] = test: as above; assay type: cell-based; details: 6.25 μM˜0.097 μM, 2 hours at 37° C.; FIG. 5B
Experimental: as §3

[10] = tested on: Calu-6 (a human lung cancer cell line); test: Anticancer activity, MTT assay; assay type: cell-based; details: for anti-cancer activity: Calu-6
Experimental: (§4) In order to measure the anticancer activity of the synthetic peptide of the present invention, the present inventors performed MTT assay with Calu-6 (a human lung cancer cell line), SNU 601 (a human stomach cancer cell line) and Jurkat (a T-cell lymphoma cell line) cells. Firstly, 90 μl of each cell line (2×10^5 cells/ml) was loaded into each well of 96-well plate. At this time, only medium contained wells were used as a control. After shaking well, the cells were cultured in CO2 incubator for 3 days. Formazan produced by mitochondria enzymes of living cells was dissolved in 100 μl of 0.04 N HCl-isopropanol, and finally, OD540 was measured by using ELISA reader. The anti-cancer activity of antibiotic peptide of the present invention was represented by a percentage (OD of synthetic peptide treated well/OD of control×100).

[11] = tested on: Jurkat (a T-cell lymphoma cell line); test: Anticancer activity, MTT assay; assay type: cell-based
Experimental: as §4

[12] = tested on: SNU 601 (a human stomach cancer cell line); test: Anticancer activity, MTT assay; assay type: cell-based; details: for anti-cancer activity: SNU 601
Experimental: as §4

[13] = Acute toxicity test in rat via non-oral administration; assay type: in vivo; details: SD, in vivo, 1 g/kg/15 ml, intravenous, read-out: level up to which no toxic change is caused
Experimental: (§5) The following experiments were performed to see if the synthetic peptide of the present invention has acute toxicity in rat.
(§6) 6-week old SPF SD line rats were used in the tests for acute toxicity. Synthetic peptide of the present invention represented by the SEQ. ID. NO: 2 was suspended in 0.5% methyl cellulose solution and intravenous injected once to 2 rats per group at the dosage of 1 g/kg/15 ml. Death, clinical symptoms, and weight change in rats were observed, hematological tests and biochemical tests of blood were performed, and any abnormal signs in the gastrointestinal organs of chest and abdomen were checked with eyes during autopsy.

SPF SD line rats = test: as above; assay type: in vivo; details: single intravenous injection, 1 g/kg/15 ml in 0.5% methyl cellulose
Experimental: as §5, §6

## CC(C)C[C@H](NC(=O)[C@H](CCCCN)NC(=O)[C@H](CCCCN)NC(=O)[C@H](CC(C)C)NC(=O)[C@H](CC(C)C)NC(=O)[C@H](CCCCN)NC(=O)[C@H](CCCCN)NC(=O)[C@H](CC(C)C)NC(=O)[C@H](CC(C)C)NC(=O)[C@@H]1CCCN1C(=O)[C@@H]1CCCN1C(=O)[C@@H]1CCCN1C(=O)[C@H](CCCCN)NC(=O)[C@H](CCCCN)NC(=O)[C@H](CC(C)C)NC(=O)[C@H](CC(C)C)NC(=O)[C@H](CCCCN)NC(=O)[C@H](CCCCN)NC(=O)[C@H](Cc1c[nH]c2ccccc12)NC(=O)[C@@H](N)CCCCN)C(=O)O [Synthetic peptide (SEQ ID. NO: 2)] (H-KWKKLLKKPPPLLKKLLKKL-OH; N-terminus and C-terminus assumed)
[1]
  antibiotic activity relative to CA-MA peptide: around 4 times
[2]
  anti-fungal activity relative to CA-MA peptide: about 2 times
[3]
  cytotoxicity (hemolysis), in words: did not show any cytotoxicity
Bacillus subtilis [4]
  colonies on LB plate: no colony was found
Pseudomonas aeruginosa [5]
  anti-bacterial activity on agar plate, compared to CA-MA: remarkable anti-bacterial activity
Bacillus subtilis [6]
  destroyed cells observed with SEM, versus control and CA-MA peptide: much more destroyed cells
Pseudomonas aeruginosa [7]
  destroyed cells observed with SEM, versus control and CA-MA peptide: much more destroyed cells
Bacillus subtilis [8]
  DPH-labeled fluorescent materials intercalated at lower position of membrane, compared to CA-MA peptide: 15-20%
Pseudomonas aeruginosa [9]
  DPH-labeled fluorescent materials intercalated at lower position of membrane, compared to CA-MA peptide: 15-20%
[10]; Calu-6, 3 days, FIG. 6A
  anti-cancer activity compared with CA-MA peptide: higher than that of CA-MA peptide
[10]; over 10 μM concentration
  anti-cancer activity: complete restrain of cancer cell growth
[10]; to the concentration of 1 μM
  anti-cancer activity: did not showed anti-cancer activity
[11]; 3 days, FIG. 6B
  anti-cancer activity compared with CA-MA peptide: higher than that of CA-MA peptide
[11]; over 10 μM concentration
  anti-cancer activity: complete restrain of cancer cell growth
[11]; to the concentration of 1 μM
  anti-cancer activity: did not showed anti-cancer activity
[12]; SNU 601, 3 days, FIG. 6C
  anti-cancer activity compared with CA-MA peptide: higher than that of CA-MA peptide
[12]; over 10 μM concentration
  anti-cancer activity: complete restrain of cancer cell growth
[12]; to the concentration of 1 μM
  anti-cancer activity: did not showed anti-cancer activity
[13]
  NOAEL: ≥ 10 mg/kg
SPF SD line rats
  clinical symptoms, weight change, death: did not cause any specific clinical symptoms, weight change, or death
  hematological tests, biochemical tests of blood, autopsy: No change was observed

## CC[C@H](C)[C@H](NC(=O)CN)C(=O)NCC(=O)N[C@@H](C)C(=O)N[C@H](C(=O)N[C@@H](CC(C)C)C(=O)N[C@@H](CCCCN)C(=O)N[C@H](C(=O)N[C@@H](CC(C)C)C(=O)N[C@H](C(=O)N[C@H](C(=O)NCC(=O)N[C@@H](CC(C)C)C(=O)N1CCC[C@H]1C(=O)N[C@@H](C)C(=O)N[C@@H](CC(C)C)C(=O)N[C@H](C(=O)N[C@@H](CO)C(=O)N[C@@H](Cc1c[nH]c2ccccc12)C(=O)N[C@H](C(=O)N[C@@H](CCCCN)C(=O)N[C@@H](CCCNC(=N)N)C(=O)N[C@@H](CCCCN)C(=O)N[C@@H](CCCNC(=N)N)C(=O)N[C@@H](CCC(N)=O)C(=O)N[C@@H](CCC(N)=O)C(N)=O)[C@@H](C)CC)[C@@H](C)CC)[C@@H](C)O)[C@@H](C)O)C(C)C)C(C)C [Melittin, melittin]
[3]
  cytotoxicity (hemolysis), in words: high cytotoxicity

## CC[C@H](C)[C@H](NC(=O)CNC(=O)[C@@H](NC(=O)[C@H](CCCCN)NC(=O)[C@H](CCCCN)NC(=O)[C@H](Cc1ccccc1)NC(=O)[C@H](CC(C)C)NC(=O)[C@H](CCCCN)NC(=O)[C@H](Cc1c[nH]c2ccccc12)NC(=O)[C@@H](N)CCCCN)[C@@H](C)CC)C(=O)NCC(=O)N[C@@H](CCCCN)C(=O)N[C@@H](Cc1ccccc1)C(=O)N[C@@H](CC(C)C)C(=O)N[C@@H](Cc1c[nH]cn1)C(=O)N[C@@H](CO)C(=O)N[C@@H](C)C(=O)N[C@@H](CCCCN)C(=O)N[C@@H](CCCCN)C(=O)N[C@@H](Cc1ccccc1)C(=O)O [CA-MA] (H-KWKLFKKIGIGKFLHSAKKF-OH)
[3]
  cytotoxicity (hemolysis), in words: did not show any cytotoxicity
